According to patent publication US20180332878A1, “BITTER TASTE INHIBITOR” (NAGAOKA CO., LTD., priority 2017, published 2018):

Legend:
Assay type in all cases: in vivo, human
[1] = Sensory evaluation, summary of Table 1; conditions: added to a food or beverage having a bitter taste; without deteriorating the influence of the food or beverage itself
From the text: The beer (without addition of isobutyl angelate) was tasted by seven panelists (one twenty-something male, one thirty-something male, one forty-something male, one fifty-something male, one sixty-something male, and one twenty-something female and one thirty-something female). Subsequently, the seven panelists rinsed their mouths sufficiently, and then the beer having isobutyl angelate added thereto (with addition of isobutyl angelate) was tasted by the seven panelists. The panelists compared the isobutyl-angelate-free beer with the isobutyl-angelate-containing beer, and then determined whether or not the bitter taste in the isobutyl-angelate-containing beer was improved compared with the isobutyl-angelate-free beer in accordance with the following criteria. When the sum total of the scores determined by the seven panelists was 10 points or greater, it was determined that the bitter taste was improved.
1 point: although a bitter taste was sensed, the bitter taste was improved compared with the isobutyl-angelate-free beer; and
0 point: the bitter taste was not improved.

[2] = Sensory evaluation, summary of Table 3; conditions: added to an extract of a crude drug having a bitter taste
[3] = Sensory evaluation, summary of Table 2; conditions: added to an amino acid having a bitter taste

C/C=C(/C)C(=O)OCC(C)C [isobutyl angelate, Isobutyl angelate]
Effect on bitter taste (summary of Table 1) [1]: the bitter taste is reduced | Effect on bitter taste (summary of Table 3) [2]: a bitter taste derived from the crude drug is reduced | Effect on bitter taste (summary of Table 2) [3]: the bitter taste derived from the amino acid is reduced
